Experimental findings from ChEMBL document CHEMBL3576805, “Discovery of a Dual PRMT5-PRMT7 Inhibitor” (ACS Med Chem Lett, 2015) are described below.

Data set [1] addresses DNA (cytosine-5)-methyltransferase 3B (Homo sapiens, UniProt Q9UBC3). Briefly: Inhibition of human full length DNMT3B expressed in Sf9 cells.
The target in data set [2] is DNA (cytosine-5)-methyltransferase 3A (Homo sapiens, UniProt Q9Y6K1). The data set can be described thus: Inhibition of human full length DNMT3A expressed in Sf9 cells.
The test system of data set [3] is MDA-MB-231. Briefly: Inhibition of H4R3 methylation in human MDA-MB-231 cells at 50 uM by immunoblotting analysis. Format: functional, cell-based.
In data set [4] the target is T1, Protein arginine N-methyltransferase 7 (Homo sapiens, UniProt Q9NVM4).
T1 sequence (Q9NVM4 whole entry): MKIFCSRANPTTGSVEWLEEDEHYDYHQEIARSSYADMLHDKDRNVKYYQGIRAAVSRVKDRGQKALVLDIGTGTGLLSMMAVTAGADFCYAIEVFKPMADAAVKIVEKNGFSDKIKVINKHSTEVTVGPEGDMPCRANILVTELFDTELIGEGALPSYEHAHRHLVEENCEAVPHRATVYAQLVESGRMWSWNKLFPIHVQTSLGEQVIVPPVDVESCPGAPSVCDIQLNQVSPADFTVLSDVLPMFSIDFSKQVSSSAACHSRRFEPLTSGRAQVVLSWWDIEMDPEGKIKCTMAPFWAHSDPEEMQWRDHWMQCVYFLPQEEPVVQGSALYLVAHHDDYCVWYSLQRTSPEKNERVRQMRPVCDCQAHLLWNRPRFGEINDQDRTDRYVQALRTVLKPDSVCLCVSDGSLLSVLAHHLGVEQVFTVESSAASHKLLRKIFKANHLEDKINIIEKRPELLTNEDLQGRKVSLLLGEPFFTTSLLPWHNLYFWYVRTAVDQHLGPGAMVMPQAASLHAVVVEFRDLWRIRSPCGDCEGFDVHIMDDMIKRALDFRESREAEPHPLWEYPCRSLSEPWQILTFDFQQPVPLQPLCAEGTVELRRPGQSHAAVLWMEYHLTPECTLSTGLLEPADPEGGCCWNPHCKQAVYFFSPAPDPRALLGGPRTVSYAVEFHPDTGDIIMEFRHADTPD
The data set can be described thus: Inhibition of human full length PRMT7 expressed in Sf9 cells.

Data set [5] has as its target Protein arginine N-methyltransferase 1 (Homo sapiens) (UniProt Q99873). The data set can be described thus: Inhibition of PRMT1 (unknown origin).
Data set [6] deals with T2, PRMT5/MEP50 complex (Homo sapiens, UniProt O14744). The data set can be described thus: Binding affinity to human full length PRMT5-MEP50 complex by Surface plasmon resonance method. The data set is classed as protein-complex assay.
For data set [7], the target named is T3, PRMT5/MEP50 complex (Homo sapiens) (UniProt O14744+Q9BQA1). The data set can be described thus: Inhibition of human full length PRMT5-MEP50 complex expressed in Sf9 cells using SmD3 peptide AGRGRGKAAILKAQVAARGRGRGMGRGN as a substrate.
The target of data set [8] is Protein arginine N-methyltransferase 5 (Homo sapiens, UniProt O14744). Briefly: Inhibition of human full length PRMT5 expressed in Sf9 cells.
For data set [9], the target named is Protein arginine N-methyltransferase 8 (Homo sapiens) (UniProt Q9NR22). Briefly: Inhibition of PRMT8 (unknown origin).
Data set [10] addresses T3, PRMT5/MEP50 complex (Homo sapiens). Briefly: Noncompetitive inhibition of human full length PRMT5-MEP50 complex expressed in Sf9 cells in presence of increasing concentration of histone peptide substrate.
Data set [11] has as its target Protein arginine N-methyltransferase 3 (Homo sapiens) (UniProt O60678). Briefly: Inhibition of PRMT3 (unknown origin).
Data set [12] has as its target T1, Protein arginine N-methyltransferase 7. Briefly: Binding affinity to human full length PRMT7 by Surface plasmon resonance method. On the technique in general: Surface plasmon resonance follows binding to a sensor surface in real time, without labels.
Data set [13] concerns the target T2, PRMT5/MEP50 complex. The data set can be described thus: (§1) Inhibition of human full length PRMT5-MEP50 complex expressed in Sf9 cells.
Data set [14] concerns the target T3, PRMT5/MEP50 complex (Homo sapiens). The data set is described as §1.
Data set [15] deals with T2, PRMT5/MEP50 complex. The data set can be described thus: Inhibition of human full length PRMT5-MEP50 complex expressed in Sf9 cells using full length histone H4 substrate.
The target in data set [16] is Protein arginine N-methyltransferase 6 (Homo sapiens) (UniProt Q96LA8). Briefly: Inhibition of PRMT6 (unknown origin).
In data set [17] the test system is MDA-MB-231. Briefly: Cytotoxicity against human MDA-MB-231 cells assessed as cell viability by Alamar blue assay. Format: cell-based. In general terms: The colour change of resazurin is a common sign of viable cells or microbes.
In data set [18] the target is T3, PRMT5/MEP50 complex (Homo sapiens). The data set can be described thus: Inhibition of human full length PRMT5-MEP50 complex expressed in Sf9 cells assessed as inhibition of methylation of peptide substrate at 750 uM.

The source made the active and inactive calls. The calls are words filed in the database; no cut-off is given here. Where only a bound is given, the exact number is not on record here.

T2 sequence (O14744 whole entry): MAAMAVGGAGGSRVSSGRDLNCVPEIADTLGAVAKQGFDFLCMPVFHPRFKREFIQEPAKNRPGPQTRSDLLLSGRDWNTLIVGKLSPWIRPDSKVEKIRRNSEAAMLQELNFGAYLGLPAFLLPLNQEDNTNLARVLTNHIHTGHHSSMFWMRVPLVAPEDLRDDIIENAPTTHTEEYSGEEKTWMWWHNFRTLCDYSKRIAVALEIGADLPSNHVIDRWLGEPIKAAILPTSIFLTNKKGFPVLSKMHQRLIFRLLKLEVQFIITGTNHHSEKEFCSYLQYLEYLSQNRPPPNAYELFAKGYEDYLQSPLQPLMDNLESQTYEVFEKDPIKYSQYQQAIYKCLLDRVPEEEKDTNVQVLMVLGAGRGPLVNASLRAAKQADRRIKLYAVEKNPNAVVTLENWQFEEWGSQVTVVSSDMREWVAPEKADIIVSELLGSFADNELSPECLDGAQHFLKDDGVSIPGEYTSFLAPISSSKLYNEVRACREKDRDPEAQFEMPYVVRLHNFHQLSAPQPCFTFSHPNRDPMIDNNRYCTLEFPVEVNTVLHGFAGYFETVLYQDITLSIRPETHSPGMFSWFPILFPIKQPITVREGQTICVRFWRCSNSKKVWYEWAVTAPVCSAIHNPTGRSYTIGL
T2 sequence (Q9BQA1 whole entry, further chain): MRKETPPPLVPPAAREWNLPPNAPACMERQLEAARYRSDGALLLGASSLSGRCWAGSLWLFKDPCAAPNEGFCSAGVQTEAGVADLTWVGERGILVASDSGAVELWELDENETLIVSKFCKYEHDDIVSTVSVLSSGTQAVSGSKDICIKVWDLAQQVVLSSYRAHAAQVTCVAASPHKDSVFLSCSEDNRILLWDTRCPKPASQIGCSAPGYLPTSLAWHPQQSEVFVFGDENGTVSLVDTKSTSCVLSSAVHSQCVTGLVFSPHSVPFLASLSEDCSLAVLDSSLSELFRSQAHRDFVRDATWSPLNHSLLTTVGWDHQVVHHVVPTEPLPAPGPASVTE
Chain of DNA (cytosine-5)-methyltransferase 3A (Q9Y6K1 whole entry, looked up): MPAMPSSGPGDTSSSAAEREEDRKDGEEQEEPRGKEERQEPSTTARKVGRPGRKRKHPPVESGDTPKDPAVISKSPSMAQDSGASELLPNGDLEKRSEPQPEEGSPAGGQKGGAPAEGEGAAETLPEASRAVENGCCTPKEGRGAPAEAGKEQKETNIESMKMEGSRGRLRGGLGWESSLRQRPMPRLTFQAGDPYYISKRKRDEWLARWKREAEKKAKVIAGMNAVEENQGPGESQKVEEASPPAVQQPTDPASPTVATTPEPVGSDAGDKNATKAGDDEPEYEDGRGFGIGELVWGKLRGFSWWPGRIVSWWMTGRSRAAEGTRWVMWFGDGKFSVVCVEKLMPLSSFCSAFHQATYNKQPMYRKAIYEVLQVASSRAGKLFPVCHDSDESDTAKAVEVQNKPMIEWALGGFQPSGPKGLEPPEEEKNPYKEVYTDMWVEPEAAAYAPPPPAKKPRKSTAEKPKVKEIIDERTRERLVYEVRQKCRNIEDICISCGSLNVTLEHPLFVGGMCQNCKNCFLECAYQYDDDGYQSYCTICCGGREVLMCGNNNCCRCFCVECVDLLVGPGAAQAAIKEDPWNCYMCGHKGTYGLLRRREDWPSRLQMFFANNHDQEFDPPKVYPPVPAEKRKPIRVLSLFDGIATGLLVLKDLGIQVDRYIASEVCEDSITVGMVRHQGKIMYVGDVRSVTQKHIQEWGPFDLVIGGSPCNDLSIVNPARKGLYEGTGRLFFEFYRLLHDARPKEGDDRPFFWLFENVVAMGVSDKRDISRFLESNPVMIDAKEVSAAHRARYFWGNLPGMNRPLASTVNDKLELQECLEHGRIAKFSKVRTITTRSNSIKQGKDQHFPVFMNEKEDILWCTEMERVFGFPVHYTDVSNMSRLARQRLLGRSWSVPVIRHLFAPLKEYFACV
Chain of Protein arginine N-methyltransferase 6 (Homo sapiens) (Q96LA8 whole entry, looked up): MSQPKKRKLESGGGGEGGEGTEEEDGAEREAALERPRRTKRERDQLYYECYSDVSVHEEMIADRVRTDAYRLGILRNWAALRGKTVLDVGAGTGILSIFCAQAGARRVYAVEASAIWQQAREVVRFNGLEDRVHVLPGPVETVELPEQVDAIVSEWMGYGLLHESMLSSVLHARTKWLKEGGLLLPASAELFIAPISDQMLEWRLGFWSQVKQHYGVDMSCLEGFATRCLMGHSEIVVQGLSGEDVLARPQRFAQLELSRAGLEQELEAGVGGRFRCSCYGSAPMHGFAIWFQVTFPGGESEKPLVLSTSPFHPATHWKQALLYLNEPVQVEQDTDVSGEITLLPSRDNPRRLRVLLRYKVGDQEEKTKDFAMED
Chain of Protein arginine N-methyltransferase 5 (O14744 whole entry): as the sequence (O14744 whole entry) above
Chain of Protein arginine N-methyltransferase 3 (Homo sapiens) (O60678 2-531 limits assumed): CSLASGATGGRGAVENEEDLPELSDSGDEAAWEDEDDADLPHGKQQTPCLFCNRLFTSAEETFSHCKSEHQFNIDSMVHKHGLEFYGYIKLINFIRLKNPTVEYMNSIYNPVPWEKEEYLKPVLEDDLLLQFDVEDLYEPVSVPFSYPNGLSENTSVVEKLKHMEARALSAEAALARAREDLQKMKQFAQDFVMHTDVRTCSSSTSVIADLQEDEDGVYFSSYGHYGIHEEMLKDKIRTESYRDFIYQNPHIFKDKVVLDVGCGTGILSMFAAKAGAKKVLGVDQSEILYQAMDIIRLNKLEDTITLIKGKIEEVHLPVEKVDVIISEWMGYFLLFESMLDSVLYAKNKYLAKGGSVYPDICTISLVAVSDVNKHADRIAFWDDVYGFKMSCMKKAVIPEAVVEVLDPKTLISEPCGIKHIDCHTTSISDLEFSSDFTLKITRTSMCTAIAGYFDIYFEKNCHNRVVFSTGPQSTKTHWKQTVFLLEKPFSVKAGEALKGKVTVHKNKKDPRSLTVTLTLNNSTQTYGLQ
Chain of Protein arginine N-methyltransferase 1 (Homo sapiens) (Q99873 whole entry, looked up): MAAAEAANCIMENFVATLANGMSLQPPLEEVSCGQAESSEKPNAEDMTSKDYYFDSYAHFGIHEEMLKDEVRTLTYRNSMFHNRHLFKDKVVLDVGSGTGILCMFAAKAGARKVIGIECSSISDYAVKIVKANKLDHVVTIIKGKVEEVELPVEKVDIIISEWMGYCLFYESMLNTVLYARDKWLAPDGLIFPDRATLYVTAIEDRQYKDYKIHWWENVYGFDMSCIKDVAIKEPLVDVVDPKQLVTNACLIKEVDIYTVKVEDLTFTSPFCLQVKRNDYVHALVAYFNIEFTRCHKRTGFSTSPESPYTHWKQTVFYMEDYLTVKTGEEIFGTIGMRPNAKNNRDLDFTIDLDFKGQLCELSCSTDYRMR
Chain of Protein arginine N-methyltransferase 8 (Homo sapiens) (Q9NR22 2-394 limits assumed): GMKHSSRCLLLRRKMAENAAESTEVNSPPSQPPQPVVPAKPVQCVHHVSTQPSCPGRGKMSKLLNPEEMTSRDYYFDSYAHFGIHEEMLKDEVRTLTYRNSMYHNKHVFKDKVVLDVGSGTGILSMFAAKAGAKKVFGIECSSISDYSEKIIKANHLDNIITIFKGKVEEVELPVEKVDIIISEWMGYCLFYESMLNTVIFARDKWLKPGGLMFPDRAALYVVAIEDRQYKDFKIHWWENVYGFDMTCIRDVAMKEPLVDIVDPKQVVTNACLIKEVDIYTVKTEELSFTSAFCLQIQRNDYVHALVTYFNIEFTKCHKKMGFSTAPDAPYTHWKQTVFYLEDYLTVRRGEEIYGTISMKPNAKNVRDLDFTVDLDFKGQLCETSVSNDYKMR

By IC50 is commonly meant the concentration needed to halve the response being measured. A lower IC50 goes with greater potency in that assay. Take `Nc1ncnc2c1ncn2[C@@H]1O[C@H](CSCC[C@H](N)C(=O)O)[C@@H](O)[C@H]1O` [S-ADENOSYLHOMOCYSTEINE]: the half-inhibitory concentration (IC50) in data set [1] and in data set [2] was over 50 µM in each case.
For orientation: inhibition means how much of the control response was suppressed. Broadly, the Kd is the concentration at which binding is half-saturated. Turning to `CCNC(=O)NCCSC[C@H]1O[C@@H](n2cnc3c(N)ncnc32)[C@H](O)[C@@H]1O`, the inhibition result (with MDA-MB-231 [3]; in data set [5]; in [9]; in data set [11]; in data set [16]) was “inactive” in each case. Also, the IC50 was over 50 µM in data set [4]; over 50 µM in [1]; over 50 µM in data set [8]; 5.9 µM against PRMT5/MEP50 complex [13]; 37 µM at PRMT5/MEP50 complex [15]; over 50 µM in data set [2]. For the same molecule, the dissociation constant Kd at PRMT5/MEP50 complex [6] is 25 µM; in data set [12] it was 37 µM. Also, the inhibition result in data set [7] and in data set [10] was “Active” in each case. In addition, in [14], the inhibition result was “Dose-dependent effect”. In the data set with MDA-MB-231 [17], the Activity result is reported as “Non-toxic”.
`CC(C)N(CCCNC(=O)Nc1ccc(C(C)(C)C)cc1)C[C@H]1O[C@@H](n2ccc3c(N)ncnc32)[C@H](O)[C@@H]1O`: the IC50 in data set [4] was 7.5 µM; against PRMT5/MEP50 complex [13], over 20 µM. Besides, in data set [18], the inhibition turned out to be 80%.
